The assay concerns muscle nAChR-expressing cells. The class given is cell-based, mouse.

The values below come from article PMC7956382 (Molecules, 2021).

With α-bungarotoxin [α-Bgt], the “Inhibition of calcium transients” value is reported as “No transients were recorded”.
